US20210267944A1 (BioXcel Therapeutics, Inc., priority 2018, published 2021)
Counter-ions that a name gives are not always drawn. Like-named read-outs stand apart in the source and are kept apart here.

Conditions: for Respiration rate, Min / Systolic blood pressure, Max / Systolic blood pressure, Mean ± SD / Systolic blood pressure, Median / Systolic blood pressure, Min / Diastolic blood pressure Max / Diastolic blood pressure Mean ± SD / Diastolic blood pressure Median / Diastolic blood pressure Min / Pulse rate, Max / Pulse rate, Mean ± SD / Pulse rate, Median / Pulse rate, Min / Respiration rate, Max / Respiration rate, Mean ± SD / Respiration rate, Median: SDAT patients, IV infusion; for Subject stopping Criteria met (safety stoppage rule): subject 102
Protocol: Study drug IV infusion was to be stopped at any time if any of the following occurred: • There was more than 20 mm Hg decrease in systolic or diastolic blood pressure. • There was an isolated drop in Systolic BP<100 mm of Hg. • There was an isolated drop Diastolic BP<60 mm of Hg. • There was a decrease in heart rate of 20 beats per minute or a drop below 50 beats per minute. • Attainment of a RASS of −1 at the end of each 30 minutes infusion period.
Return to baseline parameters was defined as BP falling within 15 mm of Hg of baseline reading prior to drug administration or HR falling within 10 beats per minute of baseline reading prior to drug administration.

Cc1cccc([C@H](C)c2cnc[nH]2)c1C [dexmedetomidine hydrochloride]
Respiration rate, Min (01:15 Hr): 15 breaths/min | Systolic blood pressure, Max (01:15 Hr): 152 mm of Hg | Systolic blood pressure, Mean ± SD (01:15 Hr): 135.6 ± 13.94 mm of Hg | Systolic blood pressure, Median (01:15 Hr): 141.0 mm of Hg | Systolic blood pressure, Min (01:15 Hr): 110 mm of Hg | Diastolic blood pressure Max (01:30 Hr): 84 mm of Hg | Diastolic blood pressure Mean ± SD (01:30 Hr): 70.6 ± 8.14 mm of Hg | Diastolic blood pressure Median (01:30 Hr): 70.0 mm of Hg | Diastolic blood pressure Min (01:30 Hr): 62 mm of Hg | Pulse rate, Max (01:30 Hr): 94 beats/min | Pulse rate, Mean ± SD (01:30 Hr): 72.0 ± 14.66 beats/min | Pulse rate, Median (01:30 Hr): 71.0 beats/min | Pulse rate, Min (01:30 Hr): 52 beats/min | Respiration rate, Max (01:30 Hr): 25 breaths/min | Respiration rate, Mean ± SD (01:30 Hr): 18.6 ± 3.38 breaths/min | Respiration rate, Median (01:30 Hr): 19.0 breaths/min | Respiration rate, Min (01:30 Hr): 15 breaths/min | Systolic blood pressure, Max (01:30 Hr): 156 mm of Hg | Systolic blood pressure, Mean ± SD (01:30 Hr): 130.9 ± 13.44 mm of Hg | Systolic blood pressure, Median (01:30 Hr): 129.5 mm of Hg | Systolic blood pressure, Min (01:30 Hr): 112 mm of Hg | Diastolic blood pressure Max (01:45 Hr): 86 mm of Hg | Diastolic blood pressure Mean ± SD (01:45 Hr): 69.5 ± 11.82 mm of Hg | Diastolic blood pressure Median (01:45 Hr): 66.0 mm of Hg | Diastolic blood pressure Min (01:45 Hr): 60 mm of Hg | Pulse rate, Max (01:45 Hr): 100 beats/min | Pulse rate, Mean ± SD (01:45 Hr): 79.0 ± 14.23 beats/min | Pulse rate, Median (01:45 Hr): 79.0 beats/min | Pulse rate, Min (01:45 Hr): 61 beats/min | Respiration rate, Max (01:45 Hr): 23 breaths/min | Respiration rate, Mean ± SD (01:45 Hr): 18.6 ± 2.51 breaths/min | Respiration rate, Median (01:45 Hr): 18.0 breaths/min | Respiration rate, Min (01:45 Hr): 17 breaths/min | Systolic blood pressure, Max (01:45 Hr): 158 mm of Hg | Systolic blood pressure, Mean ± SD (01:45 Hr): 131.3 ± 23.43 mm of Hg | Systolic blood pressure, Median (01:45 Hr): 131.0 mm of Hg | Systolic blood pressure, Min (01:45 Hr): 105 mm of Hg | Diastolic blood pressure Max (02:00 Hr): 86 mm of Hg | Diastolic blood pressure Mean ± SD (02:00 Hr): 78.7 ± 11.02 mm of Hg | Diastolic blood pressure Median (02:00 Hr): 84.0 mm of Hg | Diastolic blood pressure Min (02:00 Hr): 66 mm of Hg | Pulse rate, Max (02:00 Hr): 94 beats/min | Pulse rate, Mean ± SD (02:00 Hr): 77.3 ± 20.82 beats/min | Pulse rate, Median (02:00 Hr): 84.0 beats/min | Pulse rate, Min (02:00 Hr): 54 beats/min | Respiration rate, Max (02:00 Hr): 20 breaths/min | Respiration rate, Mean ± SD (02:00 Hr): 18.3 ± 1.53 breaths/min | Respiration rate, Median (02:00 Hr): 18.0 breaths/min | Respiration rate, Min (02:00 Hr): 17 breaths/min | Systolic blood pressure, Max (02:00 Hr): 156 mm of Hg | Systolic blood pressure, Mean ± SD (02:00 Hr): 143.3 ± 17.01 mm of Hg | Systolic blood pressure, Median (02:00 Hr): 150.0 mm of Hg | Systolic blood pressure, Min (02:00 Hr): 124 mm of Hg | Diastolic blood pressure Max (02:15 Hr): 85 mm of Hg | Diastolic blood pressure Mean ± SD (02:15 Hr): 69.7 ± 13.28 mm of Hg | Diastolic blood pressure Median (02:15 Hr): 62.0 mm of Hg | Diastolic blood pressure Min (02:15 Hr): 62 mm of Hg | Pulse rate, Max (02:15 Hr): 94 beats/min | Pulse rate, Mean ± SD (02:15 Hr): 74.3 ± 21.13 beats/min | Pulse rate, Median (02:15 Hr): 77.0 beats/min | Pulse rate, Min (02:15 Hr): 52 beats/min | Respiration rate, Max (02:15 Hr): 20 breaths/min | Respiration rate, Mean ± SD (02:15 Hr): 19.3 ± 1.15 breaths/min | Respiration rate, Median (02:15 Hr): 20.0 breaths/min | Respiration rate, Min (02:15 Hr): 18 breaths/min | Systolic blood pressure, Max (02:15 Hr): 159 mm of Hg | Systolic blood pressure, Mean ± SD (02:15 Hr): 142.7 ± 20.98 mm of Hg | Systolic blood pressure, Median (02:15 Hr): 150.0 mm of Hg | Systolic blood pressure, Min (02:15 Hr): 119 mm of Hg | Diastolic blood pressure Max (02:30 Hr): 83 mm of Hg | Diastolic blood pressure Mean ± SD (02:30 Hr): 76.5 ± 9.19 mm of Hg | Diastolic blood pressure Median (02:30 Hr): 76.5 mm of Hg | Diastolic blood pressure Min (02:30 Hr): 70 mm of Hg | Pulse rate, Max (02:30 Hr): 96 beats/min | Pulse rate, Mean ± SD (02:30 Hr): 85.5 ± 14.85 beats/min | Pulse rate, Median (02:30 Hr): 85.5 beats/min | Pulse rate, Min (02:30 Hr): 75 beats/min | Respiration rate, Max (02:30 Hr): 20, 20 breaths/min | Respiration rate, Mean ± SD (02:30 Hr): 20.0 ± 0.00 breaths/min | Respiration rate, Median (02:30 Hr): 20.0 breaths/min | Respiration rate, Min (02:30 Hr): 20, 20 breaths/min | Systolic blood pressure, Max (02:30 Hr): 154 mm of Hg | Systolic blood pressure, Mean ± SD (02:30 Hr): 153.0 ± 1.41 mm of Hg | Systolic blood pressure, Median (02:30 Hr): 153.0 mm of Hg | Systolic blood pressure, Min (02:30 Hr): 152 mm of Hg | Diastolic blood pressure mean values, in words (SDAT, during infusion): within clinically acceptable limits | Pulse rate mean values, in words (SDAT, during infusion): within clinically acceptable limits | Respiration rate values, in words (SDAT, during infusion): within clinically acceptable limits | Systolic blood pressure mean values, in words (SDAT, during infusion): within clinically acceptable limits | Subject stopping Criteria met (safety stoppage rule) (SDAT): only one subject's systolic BP reduced by more than 20 mm of Hg | Subject stopping Criteria met (safety stoppage rule) (SDAT, listed as Test): SBP >20 mm of Hg decrease | time for systolic BP to return to baseline levels after infusion was stopped (SDAT, the one subject with SBP decrease >20 mm of Hg): ≤ 10 min
